Measured values from patent US20100184031A1, “NOVEL ADIPOCYTOKINE VISFATIN/PBEF1 IS AN APOPTOSIS ASSOCIATED FACTOR INDUCED IN MONOCYTES DURING IN VIVO HIV-1 INFECTION” (priority 2007, published 2010).

Columns and labels:
[1] = test system: M-tropic R5 HIV lab-strain BaL; assay: In vitro infection of PBMC cultures with HIV BaL, p24 ELISA / TCID50; assay type: cell-based
[2] = test system: M-tropic R5 HIV lab-strain BaL; assay: In vitro infection of monocyte-derived macrophages (MDM) with HIV BaL, p24 ELISA / TCID50; assay type: cell-based; settings: MDM cultures
Excerpt: (§1) For in vitro infection experiments, monocytes were obtained from buffy coats of healthy donors of the Blood Transfusion Center of Antwerp (Rode Kruis Vlaanderen, Belgium) by counterflow elutriation, as described previously (Van Herrewege et al., 2002). These cells were then differentiated to monocyte-derived macrophages (MDM) during seven days in RPMI 1640 medium (Bio-Whittaker, Verviers, Belgium) supplemented with 10% bovine fetal calf serum (Biochrom, Berlin, Germany), penicillin (100 U/ml) and streptomycin (100 μg/ml) (Roche Diagnostics, Mannheim, Germany) and 40 ng/ml M-CSF (PeproTech, London, United Kingdom) at 37° C. and 5.0% CO2. Half the medium was replaced after four days. Cells were then harvested and used for experiments in the same medium (without M-CSF).
(§2) For infection experiments, MDM were plated in 96-well plates at 7.5×10^5 cells/ml and pre-treated with recombinant visfatin (200 ng/ml) for 1 hour at 37° C. and 5.0% CO2. Then, virus was added in six-fold and incubated for 2 hours, again at 37° C. and 5.0% CO2. Cells were then washed 3× to remove unbound virus and incubated for 14 days. Productive infection was monitored via an in-house-developed p24 antigen ELISA, as described elsewhere (Beirnaert et al., 1998).
This viral infectivity can be quantified by calculating the TCID50 (Tissue Culture Infectious Dose 50%, i.e., the dose of virus that has a 50% chance of infecting a cell culture) values of the viral stocks. Addition of visfatin reduces the TCID50 values of BaL by approximately one log in both PBMC and MDM cultures, signifying a 90% reduction in viral infectivity (FIG. 7, Panel A).

[3] = test system: T-tropic X4 HIV lab-strain IIIB (=HxB2); assay: In vitro infection with X4 HIV lab-strain IIIB, viral infectivity (TCID50); assay type: cell-based; settings: same experiment as for BaL
Protocol: as §2
This signifies that by selectively inhibiting R5 and not X4 HIV, visfatin contributes to the HIV co-receptor switch seen in ca. 50% of all patients in which the co-receptor usage of the dominant quasispecies within the patient switches from the moderately virulent R5 to the more aggressive X4, leading to increased progression to AIDS.

[4] = test system: X4 strain of the 968 clone (968-1); assay: In vitro infection of MDM with clinical isolate 968-1 (X4), viral titer (TCID50); assay type: cell-based, HIV
Excerpt: as §1, §2
R5 and X4 strains of the 968 viral clone were isolated from one patient, and differ only in co-receptor usage.

[5] = PBMC cultures, 200 ng/ml PBEF1, 14 days of culture
[6] = 200 ng/ml PBEF1, 14 days of culture

| Molecule | infectivity of HIVBaL (TCID50) ([1]; PBMC cultures, 100 μM nicotinamide mononucleotide, 14 days of culture) | reduction in viral infectivity [1, 5] [%] | reduction of TCID50 value of BaL [1, 5] | viral infectivity (productive infection, p24 secretion) ([1]; activated PBMC cultures, recombinant visfatin added prior to infection with BaL) | reduction in viral infectivity [2, 6] [%] | reduction of TCID50 value of BaL [2, 6] | viral infectivity (productive infection, p24 secretion) ([2]; recombinant visfatin (200 ng/ml) added prior to infection with BaL) | effect on viral infectivity of X4 strain IIIB [3] | viral titer of X4 clinical isolate in MDM [4, 6] | productive infection of MDM by X4 clinical isolate 968-1 ([4]; strain incapable of infecting untreated MDM) |
| --- | --- | --- | --- | --- | --- | --- | --- | --- | --- | --- |
| NC(=O)c1ccc[n+]([C@@H]2O[C@H](COP(=O)([O-])O)[C@@H](O)[C@H]2O)c1 [NMN, nicotinamide mononucleotide, reference compound] | reduces the infectivity | – | – | – | – | – | – | – | – | – |
| visfatin: Recombinant visfatin (PBEF1, nicotinamide phosphoribosyltransferase) protein obtained from PeproTech | – | 90 | approximately one | decreases the viral infectivity | 90 | approximately one | decreases the viral infectivity | does not mediate this effect | increased the viral titer | allowed the 968-1 clone to establish a productive infection |
